# The source made the active and inactive calls.
# Key:
# Nonstructural protein 1 = Nonstructural protein 1 (Influenza A virus, UniProt Q194T2); type: functional, Influenza A virus (A/California/07/2009(H1N1))
# [1] = target: T1, Replicative DNA helicase DnaB (Mycobacterium tuberculosis, UniProt P9WMR3); experiment: DnaB intein splicing inhibitors, dose response, biochemical, cell-free fluorescence (AID 449749); type: functional
# T1 sequence (P9WMR3 whole entry): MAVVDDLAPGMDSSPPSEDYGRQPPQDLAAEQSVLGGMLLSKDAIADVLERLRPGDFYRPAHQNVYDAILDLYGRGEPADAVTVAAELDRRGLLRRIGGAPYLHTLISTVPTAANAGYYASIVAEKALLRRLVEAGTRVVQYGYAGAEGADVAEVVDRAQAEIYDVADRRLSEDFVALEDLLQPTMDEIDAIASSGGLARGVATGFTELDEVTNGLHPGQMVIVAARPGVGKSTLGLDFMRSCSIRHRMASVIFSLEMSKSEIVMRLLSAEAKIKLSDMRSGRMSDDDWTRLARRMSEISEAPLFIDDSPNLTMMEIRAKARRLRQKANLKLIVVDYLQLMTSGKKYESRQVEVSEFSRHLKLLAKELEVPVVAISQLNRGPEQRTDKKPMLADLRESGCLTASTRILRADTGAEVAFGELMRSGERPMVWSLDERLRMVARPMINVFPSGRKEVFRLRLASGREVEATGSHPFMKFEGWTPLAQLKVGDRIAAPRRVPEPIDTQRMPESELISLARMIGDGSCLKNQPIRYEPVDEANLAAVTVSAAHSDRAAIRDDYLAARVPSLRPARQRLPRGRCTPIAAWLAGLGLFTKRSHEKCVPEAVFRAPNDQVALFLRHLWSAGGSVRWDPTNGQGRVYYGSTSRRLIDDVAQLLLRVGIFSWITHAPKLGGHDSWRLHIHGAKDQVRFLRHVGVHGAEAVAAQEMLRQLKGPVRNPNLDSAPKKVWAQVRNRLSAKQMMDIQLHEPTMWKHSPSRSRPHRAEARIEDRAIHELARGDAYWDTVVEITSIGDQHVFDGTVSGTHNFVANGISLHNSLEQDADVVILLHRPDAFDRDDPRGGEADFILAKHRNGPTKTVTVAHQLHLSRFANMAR
# Protein RecA = target: T2, Protein RecA (Mycobacterium tuberculosis, UniProt P9WHJ3); experiment: Fluorescence Cell-Free Homogeneous Dose Retest to Identify Inhibitors of RecA-Intein Splicing Activity. [Related pubchem assays (depositor defined):AID2097, AID2223, AID489010, AID492950]; type: functional
# T2 sequence (P9WHJ3 whole entry): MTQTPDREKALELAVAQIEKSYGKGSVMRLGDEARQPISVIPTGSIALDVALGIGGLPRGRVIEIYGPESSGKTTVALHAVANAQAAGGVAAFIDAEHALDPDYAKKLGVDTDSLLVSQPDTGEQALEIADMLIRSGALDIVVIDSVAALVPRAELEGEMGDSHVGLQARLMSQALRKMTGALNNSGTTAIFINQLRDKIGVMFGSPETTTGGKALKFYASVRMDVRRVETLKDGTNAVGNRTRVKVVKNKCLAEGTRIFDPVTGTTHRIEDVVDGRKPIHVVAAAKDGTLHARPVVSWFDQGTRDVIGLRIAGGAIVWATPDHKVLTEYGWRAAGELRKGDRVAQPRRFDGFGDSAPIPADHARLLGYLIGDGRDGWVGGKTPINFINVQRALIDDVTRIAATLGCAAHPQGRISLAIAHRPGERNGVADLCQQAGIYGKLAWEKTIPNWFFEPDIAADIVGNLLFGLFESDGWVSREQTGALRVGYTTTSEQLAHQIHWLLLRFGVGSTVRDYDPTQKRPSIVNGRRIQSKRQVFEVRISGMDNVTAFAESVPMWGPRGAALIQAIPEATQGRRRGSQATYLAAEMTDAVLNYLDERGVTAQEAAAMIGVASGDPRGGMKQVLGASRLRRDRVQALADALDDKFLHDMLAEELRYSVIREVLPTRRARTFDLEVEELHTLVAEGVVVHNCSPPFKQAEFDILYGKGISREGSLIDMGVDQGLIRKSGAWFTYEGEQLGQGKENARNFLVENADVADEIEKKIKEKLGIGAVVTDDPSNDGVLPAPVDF
# Coagulation factor XII = target: T3, Coagulation factor XII (Homo sapiens, UniProt P00748); type: functional;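 further: activated factor XIIa alpha cleaving a fluorogenic AMC peptide substrate; inhibitor potency from loss of enzyme activity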
# T3 sequence (P00748 whole entry): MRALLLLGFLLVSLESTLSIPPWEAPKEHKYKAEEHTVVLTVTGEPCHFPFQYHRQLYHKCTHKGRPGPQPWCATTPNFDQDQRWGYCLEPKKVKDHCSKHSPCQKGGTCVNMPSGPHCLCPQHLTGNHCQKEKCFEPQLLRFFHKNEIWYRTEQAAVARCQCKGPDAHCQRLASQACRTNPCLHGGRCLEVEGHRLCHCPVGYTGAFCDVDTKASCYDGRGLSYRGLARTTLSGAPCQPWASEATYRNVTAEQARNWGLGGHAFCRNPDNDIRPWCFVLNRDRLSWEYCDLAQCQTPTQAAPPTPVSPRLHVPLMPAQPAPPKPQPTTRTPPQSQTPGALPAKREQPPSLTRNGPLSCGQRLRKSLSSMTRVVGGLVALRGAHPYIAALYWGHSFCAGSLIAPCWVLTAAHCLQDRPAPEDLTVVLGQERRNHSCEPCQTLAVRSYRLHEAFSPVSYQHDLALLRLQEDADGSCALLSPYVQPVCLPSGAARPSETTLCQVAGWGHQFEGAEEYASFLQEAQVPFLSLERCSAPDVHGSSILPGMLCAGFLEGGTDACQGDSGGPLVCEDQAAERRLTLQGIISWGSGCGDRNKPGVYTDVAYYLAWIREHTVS
# [2] = target: T4, Nucleotide-binding oligomerization domain-containing protein 1 (Homo sapiens, UniProt Q9Y239); experiment: blockers of NOD1 pathway activity – revised, SAR follow-up (AID 2333); type: functional
# T4 sequence (Q9Y239 whole entry): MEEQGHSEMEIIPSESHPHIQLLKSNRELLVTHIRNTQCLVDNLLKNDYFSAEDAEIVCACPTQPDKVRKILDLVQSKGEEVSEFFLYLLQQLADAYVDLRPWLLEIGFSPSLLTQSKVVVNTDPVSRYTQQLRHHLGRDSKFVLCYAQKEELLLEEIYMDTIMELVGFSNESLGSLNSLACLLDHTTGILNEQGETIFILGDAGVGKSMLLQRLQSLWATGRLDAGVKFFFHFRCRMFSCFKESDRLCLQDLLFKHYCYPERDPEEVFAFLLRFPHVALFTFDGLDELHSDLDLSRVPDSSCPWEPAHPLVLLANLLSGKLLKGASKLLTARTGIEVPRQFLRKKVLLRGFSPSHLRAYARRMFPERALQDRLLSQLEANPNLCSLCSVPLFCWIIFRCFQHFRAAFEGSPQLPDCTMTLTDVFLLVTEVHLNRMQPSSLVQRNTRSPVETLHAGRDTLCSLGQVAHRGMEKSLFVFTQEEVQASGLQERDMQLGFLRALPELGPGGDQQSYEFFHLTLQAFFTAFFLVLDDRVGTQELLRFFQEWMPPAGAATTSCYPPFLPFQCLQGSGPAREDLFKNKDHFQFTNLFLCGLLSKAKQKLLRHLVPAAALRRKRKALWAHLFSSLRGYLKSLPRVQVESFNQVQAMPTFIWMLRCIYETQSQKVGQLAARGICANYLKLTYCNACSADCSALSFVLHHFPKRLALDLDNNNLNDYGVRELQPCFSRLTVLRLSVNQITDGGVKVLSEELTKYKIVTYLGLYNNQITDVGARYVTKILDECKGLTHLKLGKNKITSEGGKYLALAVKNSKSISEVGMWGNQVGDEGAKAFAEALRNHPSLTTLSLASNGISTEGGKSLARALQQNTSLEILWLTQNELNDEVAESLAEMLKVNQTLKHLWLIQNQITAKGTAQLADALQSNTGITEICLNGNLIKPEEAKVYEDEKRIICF
# [3] = non-specific 3'UTR reporter inhibition in Clone20-Shn3RL – cell-based, Renilla luciferase, cherry-picked, counter-screen for Shn3 inhibitor project, dose response (AID 624133); type: functional
# HEK293 [4] = experiment: cells; type: functional, cell-based; conditions: Homo sapiens
# HEK293 [5] = experiment: NOD2 signaling inhibitors in MDP-stimulated cells, cell-based, uHTS, luminescence (AID 2001); type: functional; conditions: Homo sapiens
# [6] = reduction of Shn3 3'UTR-driven luciferase in osteoblasts – cell-based, Clone20 osteoblasts, firefly luciferase, cherry-picked, dose response (AID 624132); type: functional;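 further: firefly luciferase luminescence from reporter carrying the Shn3 3'UTR in osteoblasts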
# HEK293 [7] = experiment: cells; type: functional, cell-based; conditions: Homo sapiens; remark: listed apart in the source
# [8] = loss of viability in HepG2 cells – cell-based, CellTiter-Glo, cherry-picked, cytotoxicity control for Shn3 inhibitor project, dose response (AID 624134); type: functional
# HEK293 [9] = experiment: cells; conditions: Homo sapiens
# Tumor necrosis factor = Tumor necrosis factor (Homo sapiens, UniProt P01375); experiment: analog potency on TNFa NF-kB signaling – cell-based, revised, SAR follow-up (AID 2337); type: functional
# Tumor necrosis factor, sequence (P01375 whole entry): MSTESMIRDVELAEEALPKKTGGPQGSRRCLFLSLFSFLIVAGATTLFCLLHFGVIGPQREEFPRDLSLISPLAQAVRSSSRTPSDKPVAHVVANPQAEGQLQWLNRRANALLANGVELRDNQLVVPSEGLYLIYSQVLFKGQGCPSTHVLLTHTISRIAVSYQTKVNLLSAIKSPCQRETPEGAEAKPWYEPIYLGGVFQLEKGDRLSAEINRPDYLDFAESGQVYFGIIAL
# HEK293 [10] = experiment: inhibition of NOD1-driven NF-kB reporter – cell-based, luminescence, uHTS, primary screen (AID 1578); type: functional; conditions: Homo sapiens
# [11] = target: T5, Alkaline phosphatase, tissue-nonspecific isozyme (Homo sapiens, UniProt P05186); experiment: potency against alkaline phosphatase TNAP – biochemical, luminescent, dose response, SAR follow-up (AID 1056)
# T5 sequence (P05186 whole entry): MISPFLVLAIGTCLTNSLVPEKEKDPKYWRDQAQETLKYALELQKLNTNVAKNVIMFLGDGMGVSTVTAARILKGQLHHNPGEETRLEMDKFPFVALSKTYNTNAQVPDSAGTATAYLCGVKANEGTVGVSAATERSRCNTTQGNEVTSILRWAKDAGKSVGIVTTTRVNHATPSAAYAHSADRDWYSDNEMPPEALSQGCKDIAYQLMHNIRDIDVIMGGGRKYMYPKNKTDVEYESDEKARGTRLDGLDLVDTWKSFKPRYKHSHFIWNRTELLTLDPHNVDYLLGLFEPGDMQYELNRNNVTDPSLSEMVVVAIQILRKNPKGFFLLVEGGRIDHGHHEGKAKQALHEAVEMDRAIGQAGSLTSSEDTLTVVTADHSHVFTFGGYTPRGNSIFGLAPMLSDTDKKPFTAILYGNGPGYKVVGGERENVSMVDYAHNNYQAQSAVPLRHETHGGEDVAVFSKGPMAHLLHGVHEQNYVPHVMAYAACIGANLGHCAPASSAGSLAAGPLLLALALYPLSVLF
# [12] = target: Glyceraldehyde-3-phosphate dehydrogenase (Homo sapiens, UniProt P04406)
# Glyceraldehyde-3-phosphate dehydrogenase, sequence (P04406 whole entry): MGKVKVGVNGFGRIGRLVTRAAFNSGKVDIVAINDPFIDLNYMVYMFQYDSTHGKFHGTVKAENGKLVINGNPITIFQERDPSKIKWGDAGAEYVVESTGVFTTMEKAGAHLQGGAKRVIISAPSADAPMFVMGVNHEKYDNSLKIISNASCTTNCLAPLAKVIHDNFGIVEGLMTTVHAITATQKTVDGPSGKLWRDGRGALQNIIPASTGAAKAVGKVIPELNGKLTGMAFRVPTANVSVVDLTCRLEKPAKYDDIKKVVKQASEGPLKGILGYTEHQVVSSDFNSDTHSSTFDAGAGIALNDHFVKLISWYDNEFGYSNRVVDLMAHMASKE
# Cytochrome P450 3A4 = Cytochrome P450 3A4 (Homo sapiens, UniProt P08684);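 further: CYP3A4 tested as one member of a cytochrome P450 panel screen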
# Cytochrome P450 3A4, sequence (P08684 whole entry): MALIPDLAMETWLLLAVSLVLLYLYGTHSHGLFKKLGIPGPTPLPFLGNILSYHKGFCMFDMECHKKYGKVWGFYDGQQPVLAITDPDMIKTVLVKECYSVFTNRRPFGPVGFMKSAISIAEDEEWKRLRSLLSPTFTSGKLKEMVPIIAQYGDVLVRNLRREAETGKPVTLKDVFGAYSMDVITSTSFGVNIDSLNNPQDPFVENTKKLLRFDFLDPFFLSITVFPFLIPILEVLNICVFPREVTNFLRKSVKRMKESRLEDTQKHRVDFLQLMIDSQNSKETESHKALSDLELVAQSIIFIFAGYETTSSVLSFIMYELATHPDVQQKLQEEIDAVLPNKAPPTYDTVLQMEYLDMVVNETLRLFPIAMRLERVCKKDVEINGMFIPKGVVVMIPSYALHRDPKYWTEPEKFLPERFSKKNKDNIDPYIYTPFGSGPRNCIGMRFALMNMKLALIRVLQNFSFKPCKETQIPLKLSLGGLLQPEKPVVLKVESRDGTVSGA
# HeLa = experiment: ATP-based viability loss in HeLa cells – cell-based, CellTiter-Glo luminescence, cherry-pick samples, cytotoxicity control for MITF activator project, dose response (AID 540259); type: functional; conditions: Homo sapiens
# Cytochrome P450 2D6 = Cytochrome P450 2D6 (Homo sapiens, UniProt P10635);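 further: CYP2D6 member of a cytochrome P450 panel assay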
# Cytochrome P450 2D6, sequence (P10635 whole entry): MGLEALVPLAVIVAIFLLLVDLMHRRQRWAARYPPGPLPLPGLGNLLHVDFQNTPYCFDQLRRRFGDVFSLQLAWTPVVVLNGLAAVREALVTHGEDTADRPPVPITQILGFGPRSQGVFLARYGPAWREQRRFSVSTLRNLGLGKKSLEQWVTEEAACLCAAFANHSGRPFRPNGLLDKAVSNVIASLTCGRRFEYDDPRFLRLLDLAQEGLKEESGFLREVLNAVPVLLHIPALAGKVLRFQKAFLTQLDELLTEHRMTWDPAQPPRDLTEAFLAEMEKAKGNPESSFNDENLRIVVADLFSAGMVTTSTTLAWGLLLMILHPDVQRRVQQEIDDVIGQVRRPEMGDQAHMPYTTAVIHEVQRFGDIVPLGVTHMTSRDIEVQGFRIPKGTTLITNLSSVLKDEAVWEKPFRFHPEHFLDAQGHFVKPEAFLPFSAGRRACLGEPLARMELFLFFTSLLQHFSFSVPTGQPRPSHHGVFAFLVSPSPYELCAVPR
# SUMO-activating enzyme = SUMO-activating enzyme (Homo sapiens, UniProt Q9UBT2); experiment: blockers of UBC9-mediated SUMO conjugation – biochemical, AlphaScreen, SUMOylation inhibitor project, confirmation (AID 2018); type: functional
# SUMO-activating enzyme, sequence (Q9UBE0 whole entry): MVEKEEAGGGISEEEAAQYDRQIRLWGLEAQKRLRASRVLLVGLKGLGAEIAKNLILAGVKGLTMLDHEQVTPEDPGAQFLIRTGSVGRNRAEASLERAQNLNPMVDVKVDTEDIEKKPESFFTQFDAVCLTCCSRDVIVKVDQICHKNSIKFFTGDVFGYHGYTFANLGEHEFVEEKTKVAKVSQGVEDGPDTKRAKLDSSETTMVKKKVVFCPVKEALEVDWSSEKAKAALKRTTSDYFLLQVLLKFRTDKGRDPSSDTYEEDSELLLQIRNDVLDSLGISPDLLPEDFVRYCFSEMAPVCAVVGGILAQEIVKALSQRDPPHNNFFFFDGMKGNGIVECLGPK
# SUMO-activating enzyme, sequence (Q9UBT2 whole entry): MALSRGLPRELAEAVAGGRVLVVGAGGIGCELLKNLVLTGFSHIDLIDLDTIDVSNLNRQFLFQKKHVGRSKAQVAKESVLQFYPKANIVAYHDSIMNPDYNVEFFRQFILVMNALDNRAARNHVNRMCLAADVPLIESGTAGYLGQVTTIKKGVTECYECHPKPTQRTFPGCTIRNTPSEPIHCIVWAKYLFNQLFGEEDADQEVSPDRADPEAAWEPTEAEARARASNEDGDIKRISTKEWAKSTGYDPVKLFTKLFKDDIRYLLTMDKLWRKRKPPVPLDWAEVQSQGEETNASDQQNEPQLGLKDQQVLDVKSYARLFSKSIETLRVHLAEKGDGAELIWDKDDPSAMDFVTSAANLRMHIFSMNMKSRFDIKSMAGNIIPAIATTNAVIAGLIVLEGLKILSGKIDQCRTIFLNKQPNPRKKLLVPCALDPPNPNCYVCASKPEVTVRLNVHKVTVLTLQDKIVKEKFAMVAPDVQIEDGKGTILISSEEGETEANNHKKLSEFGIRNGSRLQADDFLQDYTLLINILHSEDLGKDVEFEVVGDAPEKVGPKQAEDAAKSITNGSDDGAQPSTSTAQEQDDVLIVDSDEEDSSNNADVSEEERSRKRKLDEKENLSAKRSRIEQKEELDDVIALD
# Prothrombin = Prothrombin (Homo sapiens, UniProt P00734); experiment: Thrombin 1536 HTS Dose Response Confirmation. [Related pubchem assays: 1046 (Thrombin 1536 HTS; hits were confirmed in this assay)]; type: functional
# Nonstructural protein 1, sequence (Q194T2 whole entry): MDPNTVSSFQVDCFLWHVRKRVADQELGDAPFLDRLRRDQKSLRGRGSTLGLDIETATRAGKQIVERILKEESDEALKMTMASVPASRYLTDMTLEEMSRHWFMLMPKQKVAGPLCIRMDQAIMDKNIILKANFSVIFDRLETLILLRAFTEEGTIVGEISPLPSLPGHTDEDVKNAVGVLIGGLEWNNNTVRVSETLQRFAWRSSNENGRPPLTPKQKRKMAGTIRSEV
smiles,measurement,setting,value
COc1ccc2nc3ccccc3nc2c1N,IC50,Nonstructural protein 1,32.5 µM (active)
same,AC50,[1],40.1 µM (active)
same,EC50,Protein RecA,22.1 µM (active)
same,IC50,Coagulation factor XII,> 50 µM (inactive)
CC1=C(C(=O)OCC2CCCO2)C(c2ccc(C)o2)C2=C(O)CC(c3ccc(F)cc3)CC2=N1 (centres undefined),IC50,Coagulation factor XII,> 50 µM (inactive)
COCC1CCN(C(=O)c2cc(COc3ccc4ncccc4c3)on2)CC1,IC50,[2],3.13 µM (active)
same,AC50,[3],10.5 µM (active)
same,IC50,HEK293 [4],8.36 µM (active)
same,IC50,HEK293 [5],14.8 µM (inactive)
same,AC50,[6],2.7 µM (active)
same,IC50,HEK293 [7],> 20 µM (inactive)
same,AC50,[8],42.1 µM (active)
same,IC50,HEK293 [9],> 20 µM (inactive)
same,IC50,Tumor necrosis factor,4.81 µM (active)
same,EC50,HEK293 [10],2.31 µM (active)
CCOc1ccc(C)cc1S(=O)(=O)Nc1cccnc1,IC50,[11],0.858 µM (active)
same,IC50,[12],> 10 µM (inconclusive)
O=C(O)c1ccc(-c2ccccc2Cl)o1,IC50,[11],> 100 µM (inactive)
same,IC50,[12],> 100 µM (not active)
O=C(c1cnccn1)N1CCC2(CC1)CCN(c1ncccn1)CC2,AC50,Cytochrome P450 3A4,inconclusive
CC/C(=N\NC(=O)c1csc(C)c1C)c1cccs1,AC50,HeLa,> 350 µM (inactive)
O=C(NNS(=O)(=O)c1ccc(Cl)cc1)C1CCN(Cc2ccccc2)CC1,AC50,Cytochrome P450 2D6,1 µM (inconclusive)
same,AC50,Cytochrome P450 3A4,inconclusive
O=C(N=Nc1c(O)n(Cc2ccccc2)c2ccccc12)c1ccc(O)cc1,AC50,HeLa,39.7 µM (active)
COc1ccc(C(=O)N2CCC3(CCN(Cc4nccs4)CC3)CC2)cc1,AC50,Cytochrome P450 3A4,inconclusive
O=C(Nc1ccc(Br)cc1)c1ccc(N2C(=O)C3CC=C(Cl)CC3C2=O)cc1 (centres undefined),IC50,SUMO-activating enzyme,49.7 µM (active)
Cc1cc(C(=O)NCCc2ccc(O)c(O)c2)oc1C,IC50,[11],57.3 µM (active)
CN(Cc1ccccn1)Cc1nc(-c2ccc(Cl)cc2)no1,IC50,Prothrombin,> 50 µM (not active)
same,IC50,Coagulation factor XII,> 50 µM (inactive)

# From ChEMBL document CHEMBL1201862, “PubChem BioAssay data set” (2004)
